# pIC50: −log10 of the molar value. Where a SMILES comes first, the peptide text is derived from it.
# Target: HLA-A*0201 (Homo sapiens, UniProt P04439, D140Y/D185E/D98H/E176V/E277Q/G131W/G231S/I119V/I121R/I166T/I218V/L300P/L318F/N151K/N90K/P208A/P217A/Q86G/Q94H/R138H/R169H/T345S)
# Assay: In vitro class I HLA binding assay (fluorescence polarization competition)
# Conditions: allele A*0201; fluorescence polarization competition
# Experimental: (§1) A cell-free class I HLA binding assay that allows for in vitro quantification of peptide-HLA binding affinity in a competition format was used. In this assay, a fluorescently labeled, high binding, control peptide is loaded onto 384-well ½-area plates along with unlabeled experimental peptides. To remove endogenous peptides and render the HLA A and B molecules receptive to binding, HLA is heated at 53°C for 15 minutes and immediately added to the assay. The mixture is then allowed to stand for three days. Once the mixture has reached steady equilibrium (at 72 hours), displacement of the high binding control peptide is measured through fluorescence polarization. Binding of experimental peptides is expressed as the percent inhibition of the labeled control peptide (experimental fluorescence / control fluorescence, multiplied by 100). The percent inhibition values for each experimental peptide (across a range of molar concentrations) are used to calculate the concentration which inhibits 50% of the labeled control peptide’s specific binding. This value is referred to as the peptide’s IC50.
row,Compound,"IC50 (nM), in vitro HLA binding affinity"
1,DMSNEYSLFI [RH5_461],Non-Binder

# Target: HLA-A*0101 (Homo sapiens, UniProt P04439, A114D/A174V/A182V/D101N/D185E/E176A/E190D/L180R/Q94H/R68K/S129P/T187R/V100A/V91M/W191G)
# Assay: biochemical
# Format: binding
# Conditions: not given
# Experimental: as §1
row,Compound,pIC50
1,C[C@@H](O)[C@H](NC(=O)[C@@H](N)CC(=O)O)C(=O)N[C@@H](CC(=O)O)C(=O)N[C@@H](CO)C(=O)N[C@@H](CC(N)=O)C(=O)N[C@@H](Cc1c[nH]cn1)C(=O)N[C@H](C(=O)N1CCC[C@H]1C(=O)N[C@@H](CO)C(=O)N[C@@H](CC(N)=O)C(=O)O)[C@@H](C)O [RH5_280] (H-DTDSNHTPSN-OH),5.23

# Same assay, conditions: allele A*0101; cell-free competition, fluorescence polarization at 72 hours; Non-binder = no dose-dependent inhibition; read-out: IC50
row,Compound,pIC50
1,CC[C@H](C)[C@H](NC(=O)[C@H](CC(C)C)NC(=O)[C@H](CO)NC(=O)[C@H](CO)NC(=O)[C@@H](N)[C@@H](C)O)C(=O)N[C@@H](CCCCN)C(=O)N[C@@H](CCC(N)=O)C(=O)N[C@@H](CC(N)=O)C(=O)N[C@@H](CCCCN)C(=O)N[C@@H](Cc1ccc(O)cc1)C(=O)O [EBA175_0114] (H-TSSLIKQNKY-OH),4.43
2,CC[C@H](C)[C@H](NC(=O)[C@H](CCCNC(=N)N)NC(=O)[C@H](CCC(=O)O)NC(=O)[C@@H](NC(=O)[C@@H](N)[C@@H](C)O)[C@@H](C)O)C(=O)N[C@@H](CO)C(=O)N[C@@H](CC(N)=O)C(=O)N[C@@H](CC(N)=O)C(=O)N[C@@H](CCC(=O)O)C(=O)N[C@@H](Cc1ccc(O)cc1)C(=O)O [EBA175_1084] (H-TTERISNNEY-OH),6.04
3,C[C@@H](O)[C@H](NC(=O)[C@@H](N)Cc1ccccc1)C(=O)N[C@@H](Cc1ccc(O)cc1)C(=O)N[C@@H](CC(=O)O)C(=O)N[C@@H](CO)C(=O)N[C@@H](CCC(=O)O)C(=O)N[C@@H](CCC(=O)O)C(=O)N[C@@H](Cc1ccc(O)cc1)C(=O)N[C@@H](Cc1ccc(O)cc1)C(=O)O [EBA175_1392] (H-FTYDSEEYY-OH),6.87
4,CC(C)C[C@H](NC(=O)[C@H](CCCCN)NC(=O)[C@H](CC(=O)O)NC(=O)[C@H](CC(C)C)NC(=O)[C@H](CC(N)=O)NC(=O)[C@H](CC(=O)O)NC(=O)[C@@H](NC(=O)[C@@H](N)C(C)C)[C@@H](C)O)C(=O)N[C@@H](CO)C(=O)N[C@@H](CC(N)=O)C(=O)O [EBA175_1465] (H-VTDNLDKLSN-OH),3.73

# Same assay, conditions: allele A*0101; fluorescence polarization competition; read-out: IC50 (nM), in vitro HLA binding affinity
row,Compound,IC50 [nM]
1,N=C(N)NCCC[C@H](NC(=O)[C@@H](N)Cc1c[nH]cn1)C(=O)N[C@@H](CCC(=O)O)C(=O)N[C@@H](Cc1c[nH]cn1)C(=O)N1CCC[C@H]1C(=O)N[C@@H](CCCCN)C(=O)N[C@@H](CCC(=O)O)C(=O)N[C@@H](Cc1ccc(O)cc1)C(=O)N[C@@H](CCC(=O)O)C(=O)N[C@@H](Cc1ccc(O)cc1)C(=O)O [AMA1_044] (H-HREHPKEYEY-OH),11100
2,CC[C@H](C)[C@H](NC(=O)[C@H](CCC(=O)O)NC(=O)[C@@H](NC(=O)[C@@H](N)CO)[C@@H](C)CC)C(=O)N[C@H](C(=O)N[C@@H](CCC(=O)O)C(=O)N[C@@H](CCCNC(=N)N)C(=O)N[C@@H](CO)C(=O)N[C@@H](CC(N)=O)C(=O)N[C@@H](Cc1ccc(O)cc1)C(=O)O)C(C)C [AMA1_096] (H-SIEIVERSNY-OH),12100
3,CC(C)C[C@H](N)C(=O)N[C@H](C(=O)N1CCC[C@H]1C(=O)N[C@H](C(=O)N[C@@H](C)C(=O)N[C@H](C(=O)NCC(=O)N[C@@H](CC(N)=O)C(=O)N[C@@H](CCC(N)=O)C(=O)N[C@@H](Cc1ccc(O)cc1)C(=O)O)[C@@H](C)O)C(C)C)[C@@H](C)O [AMA1_166] (H-LTPVATGNQY-OH),2560
4,CC[C@H](C)[C@H](N)C(=O)N1CCC[C@H]1C(=O)N[C@@H](CC(=O)O)C(=O)N[C@@H](CC(N)=O)C(=O)N[C@@H](CC(=O)O)C(=O)N[C@@H](CCCCN)C(=O)N[C@@H](CC(N)=O)C(=O)N[C@@H](CO)C(=O)N[C@@H](CC(N)=O)C(=O)N[C@@H](Cc1ccc(O)cc1)C(=O)O [AMA1_225] (H-IPDNDKNSNY-OH),14700
5,C[C@H](N)C(=O)N[C@@H](CO)C(=O)N[C@@H](CC(=O)O)C(=O)N[C@@H](CCC(N)=O)C(=O)N1CCC[C@H]1C(=O)N[C@@H](CCCCN)C(=O)N[C@@H](CCC(N)=O)C(=O)N[C@@H](Cc1ccc(O)cc1)C(=O)N[C@@H](CCC(=O)O)C(=O)N[C@@H](CCC(N)=O)C(=O)O [AMA1_346] (H-ASDQPKQYEQ-OH),126000
6,CC[C@H](C)[C@H](NC(=O)[C@H](Cc1c[nH]cn1)NC(=O)[C@@H](NC(=O)[C@H](CCC(=O)O)NC(=O)[C@H](CC(=O)O)NC(=O)[C@H](CCC(=O)O)NC(=O)[C@H](CCC(=O)O)NC(=O)CN)[C@@H](C)O)C(=O)N[C@@H](Cc1ccc(O)cc1)C(=O)O [CYRPA_070] (H-GEEDETHIY-OH),261000
7,CC(C)C[C@H](NC(=O)[C@@H](NC(=O)[C@H](CO)NC(=O)[C@@H](NC(=O)[C@@H](N)CC(=O)O)C(C)C)[C@@H](C)O)C(=O)N[C@@H](CC(N)=O)C(=O)N[C@@H](CC(=O)O)C(=O)N[C@@H](CCC(=O)O)C(=O)N[C@@H](Cc1ccc(O)cc1)C(=O)O [CYRPA_282] (H-DVSTLNDEY-OH),52200
8,CC[C@H](C)[C@H](NC(=O)[C@H](Cc1ccc(O)cc1)NC(=O)[C@H](CCC(=O)O)NC(=O)[C@H](CC(=O)O)NC(=O)[C@H](CC(N)=O)NC(=O)[C@@H](N)CC(C)C)C(=O)N[C@H](C(=O)N[C@@H](CO)C(=O)N[C@@H](Cc1ccc(O)cc1)C(=O)O)C(C)C [CYRPA_286] (H-LNDEYIVSY-OH),28100
9,CC[C@H](C)[C@H](NC(=O)[C@H](CO)NC(=O)[C@@H](N)CC(N)=O)C(=O)N[C@@H](CC(C)C)C(=O)N[C@H](C(=O)N[C@@H](CCCCN)C(=O)N1CCC[C@H]1C(=O)N[C@@H](CCC(=O)O)C(=O)N[C@@H](CCCCN)C(=O)N[C@@H](Cc1ccc(O)cc1)C(=O)O)[C@@H](C)CC [CYRPA_311] (H-NSILIKPEKY-OH),109000
10,CC[C@H](C)[C@H](NC(=O)[C@H](CC(=O)O)NC(=O)[C@H](CC(=O)O)NC(=O)[C@H](CCCCN)NC(=O)[C@H](CCC(=O)O)NC(=O)[C@H](CCC(=O)O)NC(=O)[C@H](CCC(=O)O)NC(=O)[C@@H](NC(=O)[C@@H](N)CO)[C@@H](C)O)C(=O)N[C@@H](CCCCN)C(=O)O [RH5_46] (H-STEEEKDDIK-OH),6830
11,CC(C)C[C@H](NC(=O)CNC(=O)[C@H](CC(=O)O)NC(=O)[C@H](CC(N)=O)NC(=O)[C@@H](NC(=O)[C@H](CC(N)=O)NC(=O)[C@@H](NC(=O)[C@@H](N)CC(N)=O)[C@@H](C)O)C(C)C)C(=O)N[C@@H](CCCCN)C(=O)N[C@@H](Cc1ccc(O)cc1)C(=O)O [RH5_88] (H-NTNVNDGLKY-OH),4120
12,CC(C)[C@H](NC(=O)[C@H](CC(N)=O)NC(=O)[C@H](CCCCN)NC(=O)[C@H](Cc1ccc(O)cc1)NC(=O)[C@H](CC(=O)O)NC(=O)[C@H](CCC(=O)O)NC(=O)[C@H](CC(N)=O)NC(=O)[C@@H](N)CC(N)=O)C(=O)N[C@@H](CC(=O)O)C(=O)N[C@@H](Cc1ccc(O)cc1)C(=O)O [RH5_130] (H-NNEDYKNVDY-OH),7990
13,CC(C)[C@H](NC(=O)[C@H](CC(N)=O)NC(=O)[C@H](CCCCN)NC(=O)[C@H](Cc1ccc(O)cc1)NC(=O)[C@H](CC(=O)O)NC(=O)[C@H](CCC(=O)O)NC(=O)[C@@H](N)CC(N)=O)C(=O)N[C@@H](CC(=O)O)C(=O)N[C@@H](Cc1ccc(O)cc1)C(=O)O [RH5_131] (H-NEDYKNVDY-OH),8920
14,CC[C@H](C)[C@H](NC(=O)[C@@H](NC(=O)[C@H](Cc1ccccc1)NC(=O)[C@H](CC(=O)O)NC(=O)[C@H](CC(C)C)NC(=O)[C@@H](N)Cc1c[nH]cn1)C(C)C)C(=O)N[C@H](C(=O)N1CCC[C@H]1C(=O)N[C@@H](Cc1c[nH]cn1)C(=O)N[C@@H](Cc1ccc(O)cc1)C(=O)O)[C@@H](C)CC [RH5_170] (H-HLDFVIIPHY-OH),118000
15,N=C(N)NCCC[C@H](NC(=O)[C@H](Cc1ccc(O)cc1)NC(=O)[C@H](CO)NC(=O)[C@H](CC(=O)O)NC(=O)[C@H](CC(=O)O)NC(=O)[C@H](CC(N)=O)NC(=O)[C@H](CCCCN)NC(=O)[C@@H](N)CC(N)=O)C(=O)N[C@@H](Cc1ccc(O)cc1)C(=O)O [RH5_246] (H-NKNDDSYRY-OH),6680
16,CC[C@H](C)[C@H](NC(=O)CNC(=O)[C@H](CC(N)=O)NC(=O)[C@@H](NC(=O)[C@@H](N)CC(N)=O)[C@@H](C)O)C(=O)N[C@@H](CCCNC(=N)N)C(=O)N[C@@H](Cc1ccc(O)cc1)C(=O)N[C@@H](Cc1c[nH]cn1)C(=O)N[C@@H](Cc1ccc(O)cc1)C(=O)O [RH5_352] (H-NTNGIRYHY-OH),4380
17,CC[C@H](C)[C@H](NC(=O)[C@H](Cc1ccccc1)NC(=O)[C@H](CCCCN)NC(=O)[C@@H](NC(=O)[C@@H](NC(=O)[C@H](CC(=O)O)NC(=O)[C@@H](NC(=O)[C@@H](N)Cc1ccc(O)cc1)[C@@H](C)CC)[C@@H](C)O)[C@@H](C)CC)C(=O)N[C@@H](Cc1c[nH]cn1)C(=O)N[C@@H](CCCCN)C(=O)O [RH5_406] (H-YIDTIKFIHK-OH),1510
18,CC[C@H](C)[C@H](NC(=O)[C@@H]1CCCN1C(=O)[C@@H](NC(=O)[C@H](CC(=O)O)NC(=O)[C@H](CC(N)=O)NC(=O)[C@@H](N)Cc1ccccc1)C(C)C)C(=O)N[C@@H](CCCCN)C(=O)N[C@@H](CCSC)C(=O)N[C@@H](CCC(=O)O)C(=O)N[C@@H](Cc1ccc(O)cc1)C(=O)O [RH5_505] (H-FNDVPIKMEY-OH),498
19,CC(C)C[C@H](NC(=O)[C@H](Cc1ccc(O)cc1)NC(=O)[C@H](C)NC(=O)[C@H](Cc1ccc(O)cc1)NC(=O)[C@H](CC(=O)O)NC(=O)[C@H](CC(N)=O)NC(=O)[C@@H](N)CCC(=O)O)C(=O)N[C@@H](CC(N)=O)C(=O)N[C@@H](CCCCN)C(=O)N[C@@H](Cc1ccc(O)cc1)C(=O)O [RIPR_0059] (H-ENDYAYLNKY-OH),42200

# Reference: publication PMC8294059, “Identification and Immune Assessment of T Cell Epitopes in Five Plasmodium falciparum Blood Stage Antigens to Facilitate Vaccine Candidate Selection and Optimization” (Frontiers in Immunology, 2021)
